Assay results published in patent publication US12146880B2, “Artificial transcription factors comprising a sliding domain and uses thereof” (priority 2013, dated 2024).
Read-outs that look alike come from different tables or passages of the source. Primed or numbered codes have the meaning given here. Ends that are not written are not given here. TMR = fluorescent label conjugated to the Cys side chain; TMR″ = tetramethylrhodamine label

Experiments:
phage λ DNA = assay: Sliding assay: total internal reflection fluorescence microscopy of single TMR-labeled peptides on flow-stretched phage λ DNA; format: biochemical, bacteriophage λ; conditions: for estimated 1D diffusion constants, D: peptides diffusing along λ-DNA, low salt buffer (FIG. 6); for 1D diffusion constant, D+SD / 1D diffusion constant, D+SEM: single molecule sliding trajectories; for 1D diffusion constant, D+SD: spread = standard deviation (FIGS. 7-12); for 1D diffusion constant, D+SEM: spread = standard mean error (FIGS. 7-12)
Source text: In vitro biophysical characterization of search process may be as follows. The search dynamics may be studied in vitro by directly observing fluorescently tagged compounds search DNA and bind their targets with a fluorescence microscope. In an exemplary method, linear fragments of DNA derived from bacteriophage λ (˜50 kb) are tethered on a glass coverslip and illuminated with TIRF microscopy. Flowing fluorescently tagged peptides over the coverslip stretches out the DNA hydrodynamically, and the peptides may be directly visualized as they search the DNA. Using computational algorithms, the peptides may be tracked and biophysical parameters such as the rate of diffusive translocation on DNA may be calculated from the estimated trajectories.
[…]. A flow cell was constructed on top of the cover slip such that when laminar flow is applied, the DNA stretches in the direction of flow and orients itself parallel to and in close proximity to the surface of the cover slip. Evanescent waves from a laser reflecting off the coverslip-buffer interface were used to illuminate a very small volume (˜1 pL) with a few hundred nanometers of the glass surface. The interaction of a single, TMR-labeled peptide with DNA was visualized by a CMOS camera (ORCA-Flash 4.0 from Hamamatsu) with 5 ms time-resolution. Despite the optical resolution limit imposed by diffraction, the centroid position of each signal in each frame is determined with sub-diffraction-limited resolution, typically 1-30 nm for bright fluorescent conjugates.
Labeled peptides were infused at concentration of 100-200 pM at rates of 20-50 mL/hour. High flow rates were chosen to drive the longitudinal DNA fluctuation faster than the imaging frame rate. The assay buffer consisted of 10 mM PBS (2 mM NaCl, 0.1 mM β-mercaptoethanol, 0.05 mM EDTA, 5% (v/v) glycerol, 0.01% (v/v) Tween-20, pH 6.8).

λ-DNA [1] = conditions: cited from earlier work; for D1 ± s.e.: results from Xiong et al
λ-DNA [2] = assay: Single molecule flow stretching experiments (1D diffusion of dye-labeled molecular sleds on λ-DNA); format: biochemical, bacteriophage λ; conditions: for D1 ± s.e.: Table S5, 2 mM NaCl buffer, pH 7.4, >50 trajectories
Source text: Single Molecule Flow Stretching Experiments: The experimental details have been described by Xiong et al. Briefly, flow cells were constructed by sandwiching a double-sided tape with pre-cut channels between a poly(ethylene glycol) (PEG) functionalized coverslip and a PDMS slab containing inlet and outlet holes. The biotin-λ-DNA was made by ligating a DNA oligo with a biotin attached to the 5′ overhang of λ-DNA, and then immobilized onto the flow channel surface by utilizing biotin and streptavidin chemistry. Samples were infused at 10-400 pM concentrations at rates of 25 ml/hr. The assay buffer consisted of 10 mM phosphate buffer, 2 mM NaCl, 50 μM EDTA, 20 mM ethanol, 5% (v/v) glycerol, 0.01% Tween-20 and 0.1% (v/v) $-mercaptoethanol, and the pH was adjusted to 7.4 by adding aliquots of concentrated NaOH solution. Individual dye-labeled molecules were imaged by using a home-built total internal reflection fluorescence microscope based on a Nikon Ti body with a Hamamatsu ORCA-Flash 4.0 VI camera. Applicants used customized single particle tracking software to process the raw image data^11.
To study the motion of single molecules bound to DNA, Applicants applied a single-molecule flow-stretching assay that prepares long double-stranded DNA molecules as spatially extended templates for analysis of binding and transport activity of molecular sleds labeled with fluorescent dye molecules. […] In this assay (see a schematic in FIG. 19), functionalized DNA, e.g., biotin-k-DNA, was immobilized to a flow channel surface by one end and a laminar flow was applied to flow stretch the DNA. The flow rate was chosen so that the contribution of DNA fluctuations to the apparent motion of DNA-bound molecules along the DNA is negligible and the trajectories of single molecules were tracked by time-lapse fluorescence imaging. Here, Applicants applied the flow-stretching assay to study one-dimensional diffusion of modified peptides, peptide analogs and synthetic small molecules bound to DNA.

30 bp dsDNA [3] = assay: Fluorescence polarization (FP) DNA binding experiments; conditions: Table S5; pH 7.4
30 bp dsDNA [4] = conditions: Table S1; Cy3B conjugated to Cys residues; results from Xiong et al; cited from earlier work

## (K)13: TMR-labeled lysine homopolymer of 13 residues, SEQ ID NO: 52 (KKKKKKKKKKKKK; also: TMR-labeled, place not given here)
Phage λ DNA
  estimated 1D diffusion constants, D: 17.3 ± 5.3 million bp²/s

## C(-TMR)-(K)13: TMR conjugated to Cys residue, SEQ ID NO: 36 (C(TMR)KKKKKKKKKKKKK)
λ-DNA [1]; Table S3
  D1 ± s.e.: 19.9 ± 1.3 M(bp^2/S)

## C(-TMR)-(R)13: TMR conjugated to Cys residue, SEQ ID NO: 37 (C(TMR)RRRRRRRRRRRRR)
λ-DNA [1]; Table S3
  D1 ± s.e.: 12.9 ± 0.5 M(bp^2/S)

## Cy3B-pentaethylenehexamine [Cy3B-PEHA]
λ-DNA [2]; 2 mM NaCl vs 20 mM NaCl buffers, pH 7.4 (FIG. 14)
  effect of increasing the salt concentration on the D1 value: does not increase
λ-DNA [2]
  D1 ± s.e.: 10.1 ± 0.5 M(bp^2/S)
λ-DNA [2]; listed as PHEA-Cy3B
  D1 ± s.e.: 10.1±0.5 M(bp^2/S)
30 bp dsDNA [3]
  Kd: 1320 ± 248 nM

## FHHHHH
Phage λ DNA
  estimated 1D diffusion constants, D: 14.9 ± 6.9 million bp²/s

## GRKKRRQRRRPPQ (also: TMR label, place not given here) [TAT]
Phage λ DNA
  estimated 1D diffusion constants, D: 21 ± 7.5 million bp²/s

## GVQSLKRRRCF [pVlc-Cy38]
λ-DNA [1]; Table S1, Cy3B conjugated to Cys residues
  D1 ± s.e.: 35.1 ± 0.8 M(bp^2/S)
λ-DNA [1]; literature reference 11 (Xiong)
  sliding by itself (one-dimensional diffusion constant): 35.2±0.8 M(bp2/s)
30 bp dsDNA [4]
  Kd: 378 ± 20 nM

## KRARNTEAARRSRAR [GCN4 helix]
Phage λ DNA
  1D diffusion constant, D+SD: 12.8±5.5 ×10^6 bp^2s^−1
  1D diffusion constant, D+SEM: 12.8±0.6 ×10^6 bp^2s^−1

## KRARNTEAARRSRAR-GSGSGS-KRRR (KRARNTEAARRSRARGSGSGSKRRR) [GCN4 helix-linker-KRRR]
Phage λ DNA
  1D diffusion constant, D+SD: 11.3±4.1 ×10^6 bp^2s^−1
  1D diffusion constant, D+SEM: 11.3±0.6 ×10^6 bp^2s^−1

## KRARNTEAARRSRAR-GSGSGS-pVIc [GCN4 helix-linker-pVIc]
Phage λ DNA
  1D diffusion constant, D+SD: 9.6±4.3 ×10^6 bp^2s^−1
  1D diffusion constant, D+SEM: 9.6±0.7 ×10^6 bp^2s^−1

## KRRR ({TMR″}-KRRR)
Phage λ DNA
  estimated 1D diffusion constants, D: 20.3 ± 7.9 million bp²/s

## NVKRRTHNVLERQRRNELKRSFFALRDQ [cMyc helix]
Phage λ DNA
  1D diffusion constant, D+SD: 12.8±5.0 ×10^6 bp^2s^−1
  1D diffusion constant, D+SEM: 12.8±0.3 ×10^6 bp^2s^−1

## STSRHKKLMFKTE ({TMR″}-STSRHKKLMFKTE) [C-terminal sequence of p53]
Phage λ DNA
  estimated 1D diffusion constants, D: 17.3 ± 5.3 million bp²/s

## TMR-(K)13: TMR conjugated to the N-terminal amine, SEQ ID NO: 38 ({TMR″}-KKKKKKKKKKKKK)
λ-DNA [1]; Table S3
  D1 ± s.e.: 8.9 ± 0.5 M(bp^2/S)

## TMR-(R)13: TMR conjugated to the N-terminal amine, SEQ ID NO: 39 ({TMR″}-RRRRRRRRRRRRR)
λ-DNA [1]; Table S3
  D1 ± s.e.: 7.7 ± 0.7 M(bp^2/S)
